These results are taken from publication PMC12592400, “A unique inhibitor conformation selectively targets the DNA polymerase PolC of Gram-positive priority pathogens” (Nature Communications, 2025).

In general, MIC refers to the smallest concentration in the dilution series that meets the test's criterion for growth inhibition. A high value points to a need for much substance. For orientation: IC50 means the midpoint of a concentration-inhibition curve.

Values after ≈ are worked out from the molar mass of the structure shown. Values joined by “and” are separate entries in the source; they are usually repeats but may differ in a detail not shown here. Equal values may be shown once.

One assay relates to C. difficile 630Δerm. Nature of the assay: Simplified agar dilution susceptibility of C. difficile carrying plasmid-based polC alleles. The format is cell-based, Clostridioides difficile. To be noted: for MIC: Clostridioides difficile, 48 h. The procedure: E. coli strains were cultured aerobically at 37 °C at 180 rpm in Lysogeny Broth (LB) (1% w/v tryptone (Oxoid), 1% w/v NaCl (J.T.Baker), 0.5% w/v yeast extract). C. difficile strains were cultured in Brain Heart Infusion broth (BHI) (3.7% w/v brain heart infusion broth (Oxoid), 0.5% w/v yeast extract). Culturing of C. difficile was carried out anaerobically at 37 °C at 140 rpm in an atmosphere of 85% N2, 10% CO2, and 5% H2, using a Don Whitley VA1000 workstation. For solid media, 1.5% w/v agar (Alfa Aesar) was used. Where appropriate, media were supplemented with 50 mg/L colistin (Cayman Chemical), chloramphenicol (10 mg/L for liquid medium and 20 mg/L for agar plates), 30 mg/L kanamycin, and 15 mg/L thiamphenicol.
DNA fragments were amplified by PCR from total genomic DNA of C. difficile strain 630Δerm[40] with Q5 High-Fidelity DNA Polymerase (NEB), using oligonucleotides oNM-001/oNM-003 (amplifying the polC gene with its presumptive promoter). The oNM-001/oNM-003 PCR fragment was digested using KpnI (Roche) and BamHI (Thermo Scientific). Digesting of plasmid pAP24[65] with enzymes allowed for the isolation of plasmid backbone after agarose gel electrophoresis. The backbone was ligated to the digested PCR fragments and transformed into chemically competent DH5α E. coli cells by heat shock; transformants were selected on media containing chloramphenicol. To generate plasmids carrying variant polC genes, mutations were introduced in the plasmids harbouring wild-type polC using QuikChange Site-Directed Mutagenesis and verified by Sanger sequencing using primers listed in Supplementary Table 3. An overview of all constructed plasmids and strains can be found in Supplementary Table 4 and 5.
E. coli donor strain CA434 was transformed with the plasmid to be transferred and subsequently grown on agar plates containing chloramphenicol and kanamycin. A 1 mL aliquot of 20 h grown liquid E. coli transformant culture was pelleted by centrifugation (2 min at 10,000 x g) and cells were resuspended in 200 µL non-sporulating C. difficile 630Δerm culture. The mixture was plated onto non-selective BHI agar in 5 µL spots and after 20 h incubation, cells were harvested in 1 mL pre-reduced phosphate-buffered saline and plated in 100 µL aliquots on BHI agar supplemented with thiamphenicol and colistin. Putative transconjugants were confirmed by PCRs with primers oWKS-1070 and oWKS-1071 (targeting chromosomal gluD) and oWKS-1387, oWKS-1388, oWKS-1389, and oWKS-1390 (targeting traJ or repA on the plasmid). Note that these strains are merodiploid and carry a wild-type chromosomal copy of polC.
Susceptibilities of the parental and plasmid-carrying strains to IBZ and ACX-801 were determined using a simplified agar dilution method. In short, C. difficile strains were cultured for 20 h in liquid BHI. Bacterial cells were harvested by 10-min centrifugation at 3220 x g and resuspended in pre-reduced phosphate-buffered saline to a McFarland turbidity standard of 1.0. Suspensions were inoculated as 5 µL spots onto BHI agar containing different concentrations of inhibitor (0, 2, 4, 8, 16, 32, 64 mg/L). MICs (defined as the first dilution with severely impaired or no visible growth) were determined after 48 h and imaged on a SCAN500 plate imager (Interscience).

For a further assay, the target named is T1, E. faecium DnaE (Enterococcus faecium, UniProt Q3XYP9).
T1 sequence (Q3XYP9 1-1104): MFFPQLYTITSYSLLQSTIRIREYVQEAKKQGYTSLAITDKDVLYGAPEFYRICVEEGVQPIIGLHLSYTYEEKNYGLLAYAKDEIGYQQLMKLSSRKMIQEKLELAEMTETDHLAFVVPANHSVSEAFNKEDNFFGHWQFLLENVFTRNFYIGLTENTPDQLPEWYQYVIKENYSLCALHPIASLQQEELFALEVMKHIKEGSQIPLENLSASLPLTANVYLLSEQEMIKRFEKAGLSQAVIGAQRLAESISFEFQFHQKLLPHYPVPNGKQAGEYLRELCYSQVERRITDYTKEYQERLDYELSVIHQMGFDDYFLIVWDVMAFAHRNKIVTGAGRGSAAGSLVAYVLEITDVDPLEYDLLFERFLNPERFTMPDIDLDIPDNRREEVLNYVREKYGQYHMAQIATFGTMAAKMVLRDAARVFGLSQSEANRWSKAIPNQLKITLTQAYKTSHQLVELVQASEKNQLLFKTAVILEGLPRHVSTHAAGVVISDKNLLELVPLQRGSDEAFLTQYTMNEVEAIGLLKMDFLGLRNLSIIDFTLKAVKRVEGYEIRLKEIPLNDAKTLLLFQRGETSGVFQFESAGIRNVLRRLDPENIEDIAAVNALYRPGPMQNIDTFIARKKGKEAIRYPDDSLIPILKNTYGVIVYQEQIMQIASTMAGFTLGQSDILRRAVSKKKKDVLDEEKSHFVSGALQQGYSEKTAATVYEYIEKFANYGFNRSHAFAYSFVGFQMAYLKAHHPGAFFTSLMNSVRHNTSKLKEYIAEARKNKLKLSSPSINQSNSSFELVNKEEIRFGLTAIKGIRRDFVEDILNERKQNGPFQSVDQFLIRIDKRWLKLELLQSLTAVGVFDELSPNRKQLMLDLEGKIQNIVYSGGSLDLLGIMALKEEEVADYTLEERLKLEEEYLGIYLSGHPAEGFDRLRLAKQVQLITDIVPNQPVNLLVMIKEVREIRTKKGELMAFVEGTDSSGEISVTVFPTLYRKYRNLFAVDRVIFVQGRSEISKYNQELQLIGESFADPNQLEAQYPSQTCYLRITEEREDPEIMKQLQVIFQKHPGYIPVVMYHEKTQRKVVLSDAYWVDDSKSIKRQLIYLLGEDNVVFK
Nature of the assay: Real-time DNA primer extension assay. Format: biochemical. To be noted: for rate of activity (slope of fluorescence intensity change over time): Fig. 1f source data, E. faecium DnaE; for IC50: Fig. 1f, n = 3, ± SEM.

Where [1] appears, read: plasmid carrying polC-p.F1258I versus wild-type strain.
The mark [2] stands for this setting: plasmid carrying polC-p.F1258L versus wild-type strain.
Setting [3] is: plasmid carrying polC-p.F1258S versus wild-type strain.

Regarding `O=c1[nH]c(NCc2ccc3c(c2)OC(F)(F)O3)nc2c(F)nn(CCO)c12` [ACX-801, 5-(((2,2-difluorobenzo[d][1,3]dioxol-5-yl)methyl)amino)-3-fluoro-1-(2-hydroxyethyl)-1,6-dihydro-7H-pyrazolo[4,3-d]pyrimidin-7-one], the minimum inhibitory concentration (MIC) with C. difficile 630Δerm was 2 µg/mL (≈ 5.22 µM). Further, the “increase in the MIC” value with C. difficile 630Δerm (plasmid carrying polC-p.A1263T versus wild-type strain) is “fourfold”. For the same compound, the “increase of MIC” value in the assay on C. difficile 630Δerm (setting [1]) was 32 fold; with C. difficile 630Δerm (setting [2]), ≥ 32 fold; with C. difficile 630Δerm (setting [3]) it was 4 fold. For the same compound, the “rate of activity (slope of fluorescence intensity change over time)” value on E. faecium DnaE (inhibitor 2.5 uM) is 49.5 and 44.4 and 49.3; on E. faecium DnaE (inhibitor 4 uM), 51.3 and 51.4 and 45.3; at E. faecium DnaE (inhibitor 12.5 uM) it was 48.4 and 47.3 and 48.0; at E. faecium DnaE (inhibitor 20 uM), 47.8 and 51.2; on E. faecium DnaE (inhibitor 30 uM), 50.3 and 47.9 and 46.9; on E. faecium DnaE (inhibitor 45 uM) it was 47.9 and 46.1 and 47.4. Further, the “rate of activity (slope of fluorescence intensity change over time)” value on E. faecium DnaE (inhibitor 67.5 uM) is 46.5 and 39.7 and 47.4; at E. faecium DnaE (inhibitor 100 uM), 45.5 and 39.2 and 38.1. In addition, the IC50 at E. faecium DnaE is > 100 µM.

For the compound `O=c1[nH]c(NCc2ccc(Cl)c(Cl)c2)nc2ncn(CCN3CCOCC3)c12` [IBZ, N^2-(3,4-dichlorobenzyl)-7-(2-[1-morpholinyl]ethyl)guanine], the MIC with C. difficile 630Δerm was determined as 2 µg/mL (≈ 4.72 µM). Besides, the figures for the “increase of MIC” value with C. difficile 630Δerm (setting [1]), in the assay with C. difficile 630Δerm (setting [2]) and with C. difficile 630Δerm (setting [3]) were 8 fold, 32 fold and 2 fold, respectively. In addition, the “rate of activity (slope of fluorescence intensity change over time)” value at E. faecium DnaE (inhibitor 2.5 uM) was 49.8 and 49.1 and 50.9; on E. faecium DnaE (inhibitor 4 uM) it was 37.6 and 41.6 and 39.1; at E. faecium DnaE (inhibitor 12.5 uM) it was 40.9 and 43.1 and 37.2; on E. faecium DnaE (inhibitor 20 uM) it was 38.6 and 37.7 and 36.0; on E. faecium DnaE (inhibitor 30 uM), 35.7 and 37.2 and 30.7; at E. faecium DnaE (inhibitor 45 uM), 28.3 and 28.4 and 27.5. The “rate of activity (slope of fluorescence intensity change over time)” value at E. faecium DnaE (inhibitor 67.5 uM) is 18.3 and 24.4 and 21.1; at E. faecium DnaE (inhibitor 100 uM) it was 19.9 and 17.8 and 14.2. The compound also registered an IC50 against E. faecium DnaE of 89.3 µM. At E. faecium DnaE (in vitro, DnaE versus PolC), the “inhibition towards E. faecium DnaE lower than PolC” value is listed as “~ seven-fold”.
